Where a name gives a salt, the structure may show the parent alone. Read-outs that look alike come from different tables or passages of the source.
System: iCell endothelial cells (human iPSC-derived ECs)
Assay: Tube formation (tubulogenesis) assay in iCell endothelial cells, 18 h
Assay type: cell-based
Settings: for minimal effective concentration / activity at 0.01 µM / activity at 0.1 µM / activity at 1 µM / activity at 10 µM / activity at 100 µM: Homo sapiens, Endothelial cell, 18 hr; for endo.mtl.18hr / endo.tlps.18hr / endo.tta.18hr / endo.ttl.18hr: iPSC-EC, 0.00 µM = 100.00
Method in brief: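 iCell ECs (passages 1–5) seeded 7,500 cells/well on reduced-growth-factor Geltrex in starvation medium, exposed overnight at 37°C to compounds in triplicate concentration–response (0.5% DMSO vehicle). Calcein AM staining, 4× imaging, angiogenesis image analysis; readouts normalized to vehicle, four-parameter logistic fit, POD at 1 SD of vehicle; 100 μM assigned NOAEL if no response.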

[1] = endothelial cells (endo), tube formation mtl, read-out: POD endo.mtl.18hr
[2] = endothelial cells (endo), tube formation tlps, read-out: POD endo.tlps.18hr
[3] = endothelial cells (endo), tube formation tta, read-out: POD endo.tta.18hr
[4] = endothelial cells (endo), tube formation ttl, read-out: POD endo.ttl.18hr
[5] = iPSC-EC tube formation, 0.01 µM, 0.00 µM control = 100.00, read-out: endo.mtl.18hr
[6] = iPSC-EC tube formation, 0.01 µM, 0.00 µM control = 100.00, read-out: endo.tlps.18hr
[7] = iPSC-EC tube formation, 0.01 µM, 0.00 µM control = 100.00, read-out: endo.tta.18hr
[8] = iPSC-EC tube formation, 0.01 µM, 0.00 µM control = 100.00, read-out: endo.ttl.18hr
[9] = iPSC-EC tube formation, 0.10 µM, 0.00 µM control = 100.00, read-out: endo.mtl.18hr
[10] = iPSC-EC tube formation, 0.10 µM, 0.00 µM control = 100.00, read-out: endo.tlps.18hr
[11] = iPSC-EC tube formation, 0.10 µM, 0.00 µM control = 100.00, read-out: endo.tta.18hr
[12] = iPSC-EC tube formation, 0.10 µM, 0.00 µM control = 100.00, read-out: endo.ttl.18hr
[13] = iPSC-EC tube formation, 1.00 µM, 0.00 µM control = 100.00, read-out: endo.mtl.18hr
[14] = iPSC-EC tube formation, 1.00 µM, 0.00 µM control = 100.00, read-out: endo.tlps.18hr
[15] = iPSC-EC tube formation, 1.00 µM, 0.00 µM control = 100.00, read-out: endo.tta.18hr
[16] = iPSC-EC tube formation, 1.00 µM, 0.00 µM control = 100.00, read-out: endo.ttl.18hr
[17] = iPSC-EC tube formation, 10.00 µM, 0.00 µM control = 100.00, read-out: endo.mtl.18hr
[18] = iPSC-EC tube formation, 10.00 µM, 0.00 µM control = 100.00, read-out: endo.tlps.18hr
[19] = iPSC-EC tube formation, 10.00 µM, 0.00 µM control = 100.00, read-out: endo.tta.18hr
[20] = iPSC-EC tube formation, 10.00 µM, 0.00 µM control = 100.00, read-out: endo.ttl.18hr
[21] = iPSC-EC tube formation, 100.00 µM, 0.00 µM control = 100.00, read-out: endo.mtl.18hr
[22] = iPSC-EC tube formation, 100.00 µM, 0.00 µM control = 100.00, read-out: endo.tlps.18hr
[23] = iPSC-EC tube formation, 100.00 µM, 0.00 µM control = 100.00, read-out: endo.tta.18hr
[24] = iPSC-EC tube formation, 100.00 µM, 0.00 µM control = 100.00, read-out: endo.ttl.18hr
[25] = iPSC-EC tube formation, top concentration 100.00 µM, read-out: endo.mtl.18hr POD
[26] = iPSC-EC tube formation, top concentration 100.00 µM, read-out: endo.tlps.18hr POD
[27] = iPSC-EC tube formation, top concentration 100.00 µM, read-out: endo.tta.18hr POD
[28] = iPSC-EC tube formation, top concentration 100.00 µM, read-out: endo.ttl.18hr POD

In the case of Clc1cc(Cl)c(-c2cc(Cl)c(Cl)cc2Cl)cc1Cl [PCB 153, 2,2′,4,4′,5,5′-hexachlorobiphenyl], the minimal effective concentration [1] is reported as 0.007 µM, the minimal effective concentration [2] is reported as 1.93 µM and the minimal effective concentration [3] is reported as 3.83 µM. The minimal effective concentration [4] was 0.58 µM.
O=S(=O)(O)Oc1cc(Cl)ccc1-c1ccccc1 [2-yl PCB 3 sulfate] gave an activity at 0.01 µM [5] of 97.5%, an activity at 0.01 µM [6] of 97.8% and an activity at 0.01 µM [7] of 134%. The activity at 0.01 µM [8] was 124%, the activity at 0.1 µM [9] was 93.9% and the activity at 0.1 µM [10] was 117%. For the same compound, the activity at 0.1 µM [11] was 102%, the activity at 0.1 µM [12] was 93.2% and the activity at 1 µM [13] was 91.4%. It also gave an activity at 1 µM [14] of 118%, an activity at 1 µM [15] of 90.6% and an activity at 1 µM [16] of 83.8%. The activity at 10 µM [17] was 83.6%, the activity at 10 µM [18] was 89.9% and the activity at 10 µM [19] was 60.9%. The activity at 10 µM [20] was 58.8%, the activity at 100 µM [21] was 106% and the activity at 100 µM [22] was 86.3%. For the same compound, the activity at 100 µM [23] was 92.2%, the activity at 100 µM [24] was 89% and the minimal effective concentration [25] was 100 µM. The minimal effective concentration [26] was 100 µM, the minimal effective concentration [27] was 100 µM and the minimal effective concentration [28] was 100 µM.
In the case of Clc1ccc(Cl)c(-c2c(Cl)ccc(Cl)c2Cl)c1Cl [(-)-PCB 136, 2,2′,3,3′,6,6′-hexachlorobiphenyl], the endo.mtl.18hr (0.01 µM) is reported as 102.71, the endo.tlps.18hr (0.01 µM) is reported as 139.80 and the endo.tta.18hr (0.01 µM) is reported as 138.00. The endo.ttl.18hr (0.01 µM) was 138.93, the endo.mtl.18hr (0.10 µM) was 112.13 and the endo.tlps.18hr (0.10 µM) was 103.80. The endo.tta.18hr (0.10 µM) was 103.27, the endo.ttl.18hr (0.10 µM) was 116.27 and the endo.mtl.18hr (1.00 µM) was 102.66. It also gave an endo.tlps.18hr (1.00 µM) of 134.14, an endo.tta.18hr (1.00 µM) of 146.36 and an endo.ttl.18hr (1.00 µM) of 142.63. It also gave an endo.mtl.18hr (10.00 µM) of 114.95, an endo.tlps.18hr (10.00 µM) of 133.39 and an endo.tta.18hr (10.00 µM) of 144.91. The endo.ttl.18hr (10.00 µM) was 148.25, the endo.mtl.18hr (100.00 µM) was 40.89 and the endo.tlps.18hr (100.00 µM) was 14.11. It also gave an endo.tta.18hr (100.00 µM) of 1.36 and an endo.ttl.18hr (100.00 µM) of 1.73.
In the case of O=C1C=CC(=O)C(c2ccc(Cl)cc2)=C1 [4-Cl-BQ, 2-(4-Chlorophenyl)benzo-2,5-quinone], the minimal effective concentration [1] is reported as 0.38 µM, the minimal effective concentration [2] is reported as 1.04 µM and the minimal effective concentration [3] is reported as 23 µM. It also gave a minimal effective concentration [4] of 11.8 µM, an activity at 0.01 µM [5] of 102% and an activity at 0.01 µM [6] of 96%. The activity at 0.01 µM [7] was 156%, the activity at 0.01 µM [8] was 153% and the activity at 0.1 µM [9] was 96.3%. The activity at 0.1 µM [10] was 114%, the activity at 0.1 µM [11] was 135% and the activity at 0.1 µM [12] was 131%. The activity at 1 µM [13] was 77.5%, the activity at 1 µM [14] was 70.1% and the activity at 1 µM [15] was 111%. For the same compound, the activity at 1 µM [16] was 109%, the activity at 10 µM [17] was 68.9% and the activity at 10 µM [18] was 45%. For the same compound, the activity at 10 µM [19] was 99.9%, the activity at 10 µM [20] was 77.6% and the activity at 100 µM [21] was 59.2%. The activity at 100 µM [22] was 9.31%, the activity at 100 µM [23] was 0.43% and the activity at 100 µM [24] was 0.77%. It also gave a minimal effective concentration [25] of 0.38 µM, a minimal effective concentration [26] of 1.04 µM and a minimal effective concentration [27] of 23 µM. It also gave a minimal effective concentration [28] of 11.8 µM.
Oc1cc(Cl)cc(-c2cccc(Cl)c2)c1 [5-OH-PCB 11] was tested, and the minimal effective concentration [1] was 5.28 µM, the minimal effective concentration [2] was 5.71 µM and the minimal effective concentration [3] was 6.97 µM. For the same compound, the minimal effective concentration [4] was 7.34 µM.
For Oc1cc(Cl)c(-c2cc(Cl)ccc2Cl)cc1Cl [4-OH-PCB 52], the minimal effective concentration [1] was 9.52 µM, the minimal effective concentration [2] was 8.32 µM and the minimal effective concentration [3] was 15 µM. The minimal effective concentration [4] was 15.2 µM.
Work on O=S(=O)(O)Oc1ccc(-c2ccc(Cl)cc2)cc1 [4'-PCB 3 sulfate] yielded a minimal effective concentration [1] of 4.33 µM, a minimal effective concentration [2] of 11.7 µM and a minimal effective concentration [3] of 16.8 µM. The minimal effective concentration [4] was 11 µM.

From PMC7377239, “Cardiovascular Effects of Polychlorinated Biphenyls and Their Major Metabolites” (Environmental Health Perspectives, 2020)
